Test results taken from patent publication US6362369B1, “Phthalic acid diamide derivatives fluorine-containing aniline compounds as starting material, agricultural and horticultural insecticides, and a method for application of the insecticides” (Nihon Nohyaku Co., Ltd., priority 1997, dated 2002).

Tests used:
[1] = system: diamondback moth (Plutella xylostella); test: Insecticidal effect on diamondback moth (Test Example 1); format: in vivo; conditions: for Insecticidal effect, Test Example 1 / Insecticidal effect (Test Example 1), judged from mortality: diamondback moth; for Insecticidal effect (Test Example 1), judged from mortality: judged by the criterion of Test Example 1; for Insecticidal effect on diamondback moth (Test Example 1), judged grade: mortality judged according to the criterion shown in Test Example 1
In short: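 Oviposition by adults on Chinese cabbage seedling; immersion; air-dry; 25° C room. Count of hatched larvae at day 6 post-immersion → mortality → effect graded by criterion. Triplicate, 10 insects/group.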

[2] = system: rice leafroller (Cnaphalocrocis medinalis); test: Insecticidal effect on rice leafroller (Test Example 3); format: in vivo; conditions: 500 ppm, 25° C., humidity 70%; for Insecticidal effect, Test Example 3: rice lamina immersed; for Insecticidal effect, Test Example 3 / Insecticidal effect on rice leafroller (Test Example 3), judged grade: four days after inoculation; for Insecticidal effect (Test Example 3), judged from mortality / Insecticidal effect on rice leafroller (Test Example 3), judged grade: rice lamina dip; for Insecticidal effect (Test Example 3), judged from mortality: 4 days after inoculation; for Insecticidal effect on rice leafroller (Test Example 3), judged grade: third-instar larvae
In short: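 Insecticidal effect is judged by a predefined criterion from dead/alive counts four days after infesting air-dried lamina with third-instar larvae, kept on moistened filter paper at 25° C, 70% humidity.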

[3] = judged by the mortality criterion of Test Example 1
[4] = third-instar larvae of rice leafroller
[5] = mortality judged by criterion of Test Example 1
[6] = rice leafroller third-instar larvae

CC(C)NC(=O)c1cccc(Cl)c1C(=O)Nc1ccc(F)cc1F [compound 210]
Insecticidal effect, Test Example 1 [1, 3]: A (100)
Insecticidal effect, Test Example 3 [2, 4]: D (79-50)

CCC(O)CNC(=O)c1c(Cl)cccc1C(=O)Nc1ccc(C(F)(F)C(F)(F)F)cc1C (stereo not drawn) [compound 1318]
Insecticidal effect, Test Example 1 [1, 5]: A (100)
Insecticidal effect, Test Example 3 [2, 6]: A (100)

Cc1cc(OC(F)(F)F)ccc1NC(=O)c1ccc(F)c(F)c1C(=O)NC(C)(C)C [compound 1284]
Insecticidal effect, Test Example 1 [1, 5]: A (100)
Insecticidal effect, Test Example 3 [2, 6]: A (100)

Cc1cc(C(F)(F)C(F)(F)F)ccc1NC(=O)c1cccc(F)c1C(=O)NCc1ccccc1 [compound 1470]
Insecticidal effect (Test Example 1), judged from mortality [1]: A (100)
Insecticidal effect (Test Example 3), judged from mortality [2, 4]: A (100)

CCC(C)NC(=O)c1c(Cl)cccc1C(=O)Nc1ccc(OC(F)F)cc1C (stereo not drawn) [compound 836]
Insecticidal effect on diamondback moth (Test Example 1), judged grade [1]: A (100)
Insecticidal effect on rice leafroller (Test Example 3), judged grade [2]: A (100)

Cc1cc(C(F)(F)C(F)(F)F)ccc1NC(=O)c1cccc(Cl)c1C(=O)NCCc1ccc(Cl)cc1 [compound 1360]
Insecticidal effect, Test Example 1 [1, 5]: A (100)
Insecticidal effect, Test Example 3 [2, 6]: C (89-80)

Cc1cc(OC(F)F)ccc1NC(=O)c1c(Cl)ccc(Cl)c1C(=O)NC(C)C [compound 258]
Insecticidal effect, Test Example 1 [1, 3]: A (100)
Insecticidal effect, Test Example 3 [2, 4]: A (100)

CC(C)NC(=O)c1c(C(=O)Nc2ccc([N+](=O)[O-])cc2)cccc1[N+](=O)[O-] [compound 596]
Insecticidal effect on diamondback moth (Test Example 1), judged grade [1]: D (79-50)
Insecticidal effect on rice leafroller (Test Example 3), judged grade [2]: D (79-50)

CC(C)NC(=O)c1c(C(=O)Nc2ccccc2)cccc1[N+](=O)[O-] [compound 585]
Insecticidal effect on diamondback moth (Test Example 1), judged grade [1]: A (100)
Insecticidal effect on rice leafroller (Test Example 3), judged grade [2]: A (100)

Cc1cc(OC(F)(F)Br)ccc1NC(=O)c1c(F)cccc1C(=O)NC(C)C [compound 565]
Insecticidal effect on diamondback moth (Test Example 1), judged grade [1]: A (100)
Insecticidal effect on rice leafroller (Test Example 3), judged grade [2]: A (100)

C=CC(C)(C)NC(=O)c1cccc(Cl)c1C(=O)Nc1ccc(C(F)(F)C(F)(F)F)cc1C [compound 1589]
Insecticidal effect (Test Example 1), judged from mortality [1]: A (100)
Insecticidal effect (Test Example 3), judged from mortality [2, 4]: A (100)

CC(C)NC(=O)c1c(F)cccc1C(=O)Nc1ccc2c(c1)OCO2 [compound 528]
Insecticidal effect on diamondback moth (Test Example 1), judged grade [1]: A (100)
Insecticidal effect on rice leafroller (Test Example 3), judged grade [2]: A (100)

Cc1ccc(Cl)cc1NC(=O)c1cc(Cl)ccc1C(=O)NC(C)C [compound 191]
Insecticidal effect, Test Example 1 [1, 3]: A (100)
Insecticidal effect, Test Example 3 [2, 4]: A (100)

Cc1cc(F)ccc1NC(=O)c1c(Br)cccc1C(=O)NC(C)C [compound 314]
Insecticidal effect, Test Example 1 [1, 3]: A (100)
Insecticidal effect, Test Example 3 [2, 4]: A (100)

COCCNC(=O)c1c(C(=O)Nc2ccc(OC(F)F)cc2C)cccc1[N+](=O)[O-] [compound 872]
Insecticidal effect on diamondback moth (Test Example 1), judged grade [1]: A (100)
Insecticidal effect on rice leafroller (Test Example 3), judged grade [2]: C (89-80)

CC(C)NC(=O)c1ccccc1C(=O)Nc1cccc(C(F)(F)F)c1 [compound 26]
Insecticidal effect, Test Example 1 [1, 3]: A (100)
Insecticidal effect, Test Example 3 [2, 4]: D (79-50)

CCc1ccc(Cl)c(CC)c1NC(=O)c1cccc(I)c1C(=O)NC(C)C [compound 925]
Insecticidal effect on diamondback moth (Test Example 1), judged grade [1]: A (100)
Insecticidal effect on rice leafroller (Test Example 3), judged grade [2]: A (100)

C#CCNC(=O)c1cccc(I)c1C(=O)Nc1ccc(C(F)(F)C(F)(F)F)cc1C [compound 990]
Insecticidal effect, Test Example 1 [1, 5]: A (100)
Insecticidal effect, Test Example 3 [2, 6]: A (100)

Cc1cc(OC(F)F)ccc1NC(=O)c1cccc([S+]([O-])CC(F)(F)F)c1C(=O)NC(C)C (stereo not drawn) [compound 799]
Insecticidal effect on diamondback moth (Test Example 1), judged grade [1]: A (100)
Insecticidal effect on rice leafroller (Test Example 3), judged grade [2]: A (100)

Cc1cc(OC(F)F)ccc1NC(=O)c1cccc([N+](=O)[O-])c1C(=O)NC(C)c1ccccc1 (stereo not drawn) [compound 879]
Insecticidal effect on diamondback moth (Test Example 1), judged grade [1]: A (100)
Insecticidal effect on rice leafroller (Test Example 3), judged grade [2]: A (100)

CC(C)NC(=O)c1c(C(=O)Nc2ccc(Cl)cc2C(F)(F)F)cccc1[N+](=O)[O-] [compound 679]
Insecticidal effect on diamondback moth (Test Example 1), judged grade [1]: A (100)
Insecticidal effect on rice leafroller (Test Example 3), judged grade [2]: A (100)

Cc1cc(OC(F)(F)C(F)(F)Br)ccc1NC(=O)c1c(I)cccc1C(=O)NC(C)C [compound 444]
Insecticidal effect, Test Example 1 [1, 3]: A (100)
Insecticidal effect, Test Example 3 [2, 4]: A (100)

CC(C)NC(=O)c1c(C(=O)Nc2ccc(OC(F)(F)F)cc2Cl)cccc1[N+](=O)[O-] [compound 704]
Insecticidal effect on diamondback moth (Test Example 1), judged grade [1]: A (100)
Insecticidal effect on rice leafroller (Test Example 3), judged grade [2]: A (100)

COc1ccc(NC(=O)c2cccc(Cl)c2C(=O)NC(C)C)c(C)c1 [compound 123]
Insecticidal effect, Test Example 1 [1, 3]: A (100)
Insecticidal effect, Test Example 3 [2, 4]: A (100)

Cc1cc(C(F)(F)C(F)(F)C(F)(F)C(F)(F)C(F)(F)C(F)(F)F)ccc1NC(=O)c1c(Cl)cccc1C(=O)NC(C)C [compound 226]
Insecticidal effect, Test Example 1 [1, 3]: A (100)
Insecticidal effect, Test Example 3 [2, 4]: A (100)

Cc1c(NC(=O)c2cccc([N+](=O)[O-])c2C(=O)NC(C)C)ccc(OC(F)F)c1Cl [compound 717]
Insecticidal effect on diamondback moth (Test Example 1), judged grade [1]: A (100)
Insecticidal effect on rice leafroller (Test Example 3), judged grade [2]: A (100)

Cc1cc(Cl)ccc1NC(=O)c1c(Cl)ccc(Cl)c1C(=O)NC(C)C [compound 259]
Insecticidal effect, Test Example 1 [1, 3]: A (100)
Insecticidal effect, Test Example 3 [2, 4]: D (79-50)

CC(C)NC(=O)c1cccc(F)c1C(=O)Nc1ccc(C(F)(F)C(F)(F)F)cc1 [compound 892]
Insecticidal effect on diamondback moth (Test Example 1), judged grade [1]: A (100)
Insecticidal effect on rice leafroller (Test Example 3), judged grade [2]: A (100)

COc1ccc(NC(=O)c2c(I)cccc2C(=O)NC(C)C)c(C)c1 [compound 441]
Insecticidal effect, Test Example 1 [1, 3]: A (100)
Insecticidal effect, Test Example 3 [2, 4]: B (99-90)

CCNC(=O)c1c(Cl)cccc1C(=O)Nc1ccc(C(F)(F)C(F)(F)F)cc1F [compound 1488]
Insecticidal effect (Test Example 1), judged from mortality [1]: A (100)
Insecticidal effect (Test Example 3), judged from mortality [2, 4]: A (100)

CC(C)NC(=O)c1cccc(Cl)c1C(=O)Nc1ccc(OC(F)(F)F)cc1Br [compound 235]
Insecticidal effect, Test Example 1 [1, 3]: A (100)
Insecticidal effect, Test Example 3 [2, 4]: A (100)

CCN(CC)C(=O)c1c(C(=O)Nc2cc(Cl)ccc2C)cccc1[N+](=O)[O-] [compound 13]
Insecticidal effect, Test Example 1 [1, 3]: D (79-50)
Insecticidal effect, Test Example 3 [2, 4]: D (79-50)

CC(C)(C)NC(=O)c1ccccc1C(=O)Nc1ccc2c(c1)OC(F)C(F)(F)O2 (stereo not drawn) [compound 1149]
Insecticidal effect, Test Example 1 [1, 5]: A (100)
Insecticidal effect, Test Example 3 [2, 6]: A (100)

CC(C)NC(=O)c1c(Cl)cccc1C(=O)Nc1ccc([S+]([O-])C(F)(F)Br)cc1 (stereo not drawn) [compound 1111]
Insecticidal effect, Test Example 1 [1, 5]: A (100)
Insecticidal effect, Test Example 3 [2, 6]: A (100)

CC(C)NC(=O)c1ccccc1C(=O)Nc1ccc2c(c1)OC(F)C(F)(F)O2 (stereo not drawn) [compound 1145]
Insecticidal effect, Test Example 1 [1, 5]: A (100)
Insecticidal effect, Test Example 3 [2, 6]: A (100)

CC(C)NC(=O)c1ccccc1C(=O)Nc1ccc2c(c1)nc(C(F)(F)F)n2C [compound 86]
Insecticidal effect, Test Example 1 [1, 3]: B (99-90)
Insecticidal effect, Test Example 3 [2, 4]: B (99-90)

Cc1cc(OC(F)F)ccc1NC(=O)c1c(Br)ccc(Br)c1C(=O)NC(C)C [compound 340]
Insecticidal effect, Test Example 1 [1, 3]: A (100)
Insecticidal effect, Test Example 3 [2, 4]: A (100)

Cc1cc(Oc2ncc(C(F)(F)F)cc2Cl)ccc1NC(=O)c1c(Br)cccc1C(=O)NC(C)C [compound 336]
Insecticidal effect, Test Example 1 [1, 3]: A (100)
Insecticidal effect, Test Example 3 [2, 4]: D (79-50)

CC(C)NC(=O)c1cccc(I)c1C(=O)Nc1ccc(C(F)(F)F)cc1Cl [compound 433]
Insecticidal effect, Test Example 1 [1, 3]: A (100)
Insecticidal effect, Test Example 3 [2, 4]: A (100)

CC(C)(C)NC(=O)c1ccccc1C(=O)Nc1ccc(OC(F)(F)F)cc1Cl [compound 1021]
Insecticidal effect, Test Example 1 [1, 5]: A (100)
Insecticidal effect, Test Example 3 [2, 6]: A (100)

CC(C)NC(=O)c1ccccc1C(=O)Nc1ccc(C(F)(F)F)cc1Cl [compound 45]
Insecticidal effect, Test Example 1 [1, 3]: A (100)
Insecticidal effect, Test Example 3 [2, 4]: A (100)

CC(C)NC(=O)c1ccccc1C(=O)Nc1cccc(Cl)c1Cl [compound 41]
Insecticidal effect, Test Example 1 [1, 3]: A (100)
Insecticidal effect, Test Example 3 [2, 4]: A (100)

CCOP(=O)(OCC)c1ccc(NC(=O)c2c(Cl)cccc2C(=O)NC(C)C)c(C)c1 [compound 251]
Insecticidal effect, Test Example 1 [1, 3]: A (100)
Insecticidal effect, Test Example 3 [2, 4]: A (100)

Cc1cc(C(F)(F)C(F)(F)F)ccc1NC(=O)c1cccc(I)c1C(=O)N1CCCC1 [compound 1047]
Insecticidal effect, Test Example 1 [1, 5]: A (100)
Insecticidal effect, Test Example 3 [2, 6]: A (100)

CCN(CC)C(=O)c1c(C(=O)Nc2ccc(OC(F)(F)F)cc2)cccc1[N+](=O)[O-] [compound 1136]
Insecticidal effect, Test Example 1 [1, 5]: A (100)
Insecticidal effect, Test Example 3 [2, 6]: A (100)

Cc1cc2oc(C(F)(F)F)nc2cc1NC(=O)c1cccc(I)c1C(=O)NC(C)C [compound 1641]
Insecticidal effect (Test Example 1), judged from mortality [1]: A (100)
Insecticidal effect (Test Example 3), judged from mortality [2, 4]: A (100)

Cc1cc(C(F)(F)C(F)(F)F)ccc1NC(=O)c1c(Cl)cccc1C(=O)NC(C)(C)CO [compound 1415]
Insecticidal effect, Test Example 1 [1, 5]: A (100)
Insecticidal effect, Test Example 3 [2, 6]: A (100)

CC(C)NC(=O)c1c(I)cccc1C(=O)Nc1ccc2c(c1Cl)OC(F)(F)C(F)(F)O2 [compound 1626]
Insecticidal effect (Test Example 1), judged from mortality [1]: A (100)
Insecticidal effect (Test Example 3), judged from mortality [2, 4]: A (100)
